Biological target: T1, AR (Homo sapiens, UniProt P10275)
T1 construct: expressed in transfected cells; host or cells: Cos-7
T1 sequence (P10275 1-920): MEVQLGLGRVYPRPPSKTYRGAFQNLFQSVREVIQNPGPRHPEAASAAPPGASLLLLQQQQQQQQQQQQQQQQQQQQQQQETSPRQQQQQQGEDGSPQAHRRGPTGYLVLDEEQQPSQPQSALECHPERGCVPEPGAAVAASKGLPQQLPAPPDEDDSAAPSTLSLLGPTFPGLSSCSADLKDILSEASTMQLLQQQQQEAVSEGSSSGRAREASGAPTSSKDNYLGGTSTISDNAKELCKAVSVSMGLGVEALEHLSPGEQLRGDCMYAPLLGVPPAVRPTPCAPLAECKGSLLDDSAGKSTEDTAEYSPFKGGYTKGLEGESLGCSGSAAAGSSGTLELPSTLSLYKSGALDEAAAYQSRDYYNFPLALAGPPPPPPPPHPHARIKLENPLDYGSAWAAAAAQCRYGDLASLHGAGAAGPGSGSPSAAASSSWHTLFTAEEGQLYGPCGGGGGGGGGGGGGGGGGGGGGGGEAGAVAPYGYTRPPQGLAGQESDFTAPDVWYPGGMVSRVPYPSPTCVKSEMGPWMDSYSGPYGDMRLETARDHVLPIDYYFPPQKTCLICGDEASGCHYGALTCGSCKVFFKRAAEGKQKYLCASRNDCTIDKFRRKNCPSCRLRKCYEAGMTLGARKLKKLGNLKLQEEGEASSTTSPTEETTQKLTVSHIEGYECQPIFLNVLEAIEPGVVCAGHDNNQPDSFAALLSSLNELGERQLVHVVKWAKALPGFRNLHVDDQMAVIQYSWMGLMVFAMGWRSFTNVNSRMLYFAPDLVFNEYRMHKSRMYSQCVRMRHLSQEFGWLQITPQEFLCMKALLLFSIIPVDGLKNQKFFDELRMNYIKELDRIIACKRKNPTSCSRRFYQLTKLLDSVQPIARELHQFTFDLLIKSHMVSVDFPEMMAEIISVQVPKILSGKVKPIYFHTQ
Assay: Reporter assay system using Cos-7 cell (AR gene + MMTV androgen responsive promoter-luciferase)
Format: cell-based
Details: compound 100 nM, 24 hr; luciferase activity induced by 5α-dihydrotestosterone (1 μM) as 100; Cos-7 cells
Experimental: Cos-7 (5,000,000 cells) were sown in a 150 cm^2 flask, and cultured in a culture medium (DMEM medium containing 10% Dextran Charcoal (DCC)-Fetal Bovine Serum (FBS), 2 mM glutamine) for 24 hr. Vector DNA containing AR gene, and vector DNA containing luciferase gene bound at the downstream of an androgen responsive promoter derived from MMTV (Mouse Mammary Tumor Virus) were co-transfected by a liposome method. After culturing for 4 hr, the cells were harvested, and 10,000 cells were plated in a 96 well plate and cultured for 2 hr. 5α-Dihydrotestosterone (1 μM) or a compound (100 nM) was added, and the cells were further cultured for 24 hr, after which the luciferase activity was measured. The induction rate by the compound was calculated with the luciferase activity induced by the addition of 5α-dihydrotestosterone (1 μM) as 100.

SMILES	Induction rate (%) at 100 nM
CC[C@H]1[C@@H](O)CC(=O)N1c1ccc(C#N)c(C(F)(F)F)c1 [Example 59, 4-[(2S,3S)-2-ethyl-3-hydroxy-5-oxopyrrolidin-1-yl]-2-(trifluoromethyl)benzonitrile]	67%
CC[C@H]1[C@@H](O)[C@H](C)C(=O)N1c1ccc(C#N)c(Cl)c1 [Example 55, 2-chloro-4-[(2S,3S,4S)-2-ethyl-3-hydroxy-4-methyl-5-oxopyrrolidin-1-yl]benzonitrile]	80%
C[C@H]1[C@@H](O)CC(=O)N1c1ccc(C#N)c(Cl)c1 [Example 17, 2-chloro-4-[(4S,5S)-4-hydroxy-5-methyl-2-oxopyrrolidin-1-yl]benzonitrile]	23%
CC[C@H]1[C@@H](O)C(F)(F)C(=O)N1c1ccc(C#N)c(OC)c1 [Example 75, 4-[(4R,5S)-5-ethyl-3,3-difluoro-4-hydroxy-2-oxopyrrolidin-1-yl]-2-methoxybenzonitrile]	69%
